Results reported in publication doi:10.1101/2020.07.01.182642v1 (biorxiv, 2020).

Legend:
Conditions in all cases: binder
CDKL1 = CDKL1 (Homo sapiens, UniProt Q00532)
PIM3 = PIM3 (Homo sapiens, UniProt Q86V86)
LYN = LYN (Homo sapiens, UniProt P07948)
PKMYT1 = target: T1, PKMYT1 (Homo sapiens, UniProt Q99640)
T1 sequence (Q99640 1-499): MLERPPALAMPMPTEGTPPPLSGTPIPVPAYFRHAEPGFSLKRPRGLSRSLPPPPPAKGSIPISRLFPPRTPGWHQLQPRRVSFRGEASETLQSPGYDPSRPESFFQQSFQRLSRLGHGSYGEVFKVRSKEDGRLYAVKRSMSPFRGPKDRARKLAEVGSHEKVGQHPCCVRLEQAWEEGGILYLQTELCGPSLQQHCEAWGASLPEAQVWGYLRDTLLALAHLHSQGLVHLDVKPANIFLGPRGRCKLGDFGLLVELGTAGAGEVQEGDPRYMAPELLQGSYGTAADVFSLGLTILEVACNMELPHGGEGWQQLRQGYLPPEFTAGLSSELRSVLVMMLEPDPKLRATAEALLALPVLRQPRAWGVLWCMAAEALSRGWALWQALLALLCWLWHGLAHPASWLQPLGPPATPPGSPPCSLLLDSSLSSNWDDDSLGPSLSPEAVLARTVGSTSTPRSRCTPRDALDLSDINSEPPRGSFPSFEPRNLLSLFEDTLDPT

CSNK1G1 = CSNK1G1 (Homo sapiens, UniProt Q9HCP0)
SLK = SLK (Homo sapiens, UniProt Q9H2G2)
CAMK2A = CAMK2A (Homo sapiens, UniProt Q9UQM7)
TNIK = TNIK (Homo sapiens, UniProt Q9UKE5)
DYRK2 = target: T2, DYRK2 (Homo sapiens, UniProt Q92630)
T2 sequence (Q92630 1-601): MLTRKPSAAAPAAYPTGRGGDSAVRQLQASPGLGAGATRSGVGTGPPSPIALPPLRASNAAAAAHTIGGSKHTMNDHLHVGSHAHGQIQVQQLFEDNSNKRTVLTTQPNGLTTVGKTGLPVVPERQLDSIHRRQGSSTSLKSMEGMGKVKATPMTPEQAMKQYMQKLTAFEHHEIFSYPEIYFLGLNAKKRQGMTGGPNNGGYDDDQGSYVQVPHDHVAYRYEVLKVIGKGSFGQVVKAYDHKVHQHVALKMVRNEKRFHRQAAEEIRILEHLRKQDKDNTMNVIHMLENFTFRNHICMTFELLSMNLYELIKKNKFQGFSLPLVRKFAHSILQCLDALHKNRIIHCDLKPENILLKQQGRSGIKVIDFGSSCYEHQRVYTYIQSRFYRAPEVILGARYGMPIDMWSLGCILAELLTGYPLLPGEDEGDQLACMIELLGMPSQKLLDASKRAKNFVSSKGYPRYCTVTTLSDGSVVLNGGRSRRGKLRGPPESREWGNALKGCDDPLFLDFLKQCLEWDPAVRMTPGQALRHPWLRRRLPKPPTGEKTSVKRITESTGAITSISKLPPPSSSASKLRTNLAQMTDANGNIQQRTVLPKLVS

CLK2 = CLK2 (Homo sapiens, UniProt P49760)
PHKG2 = target: T3, PHKG2 (Homo sapiens, UniProt P15735)
T3 sequence (P15735 1-406): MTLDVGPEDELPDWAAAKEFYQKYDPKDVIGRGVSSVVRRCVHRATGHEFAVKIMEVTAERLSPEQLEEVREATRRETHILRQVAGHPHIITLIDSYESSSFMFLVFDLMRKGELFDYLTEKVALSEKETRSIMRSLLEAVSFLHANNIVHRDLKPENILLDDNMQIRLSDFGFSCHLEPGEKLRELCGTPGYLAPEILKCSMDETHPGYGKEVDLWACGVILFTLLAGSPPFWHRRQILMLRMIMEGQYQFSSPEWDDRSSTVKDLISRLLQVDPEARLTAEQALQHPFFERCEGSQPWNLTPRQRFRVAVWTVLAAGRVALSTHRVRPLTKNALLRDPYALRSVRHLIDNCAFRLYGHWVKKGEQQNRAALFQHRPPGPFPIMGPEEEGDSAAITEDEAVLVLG

TNIK, sequence (Q9UKE5 whole entry): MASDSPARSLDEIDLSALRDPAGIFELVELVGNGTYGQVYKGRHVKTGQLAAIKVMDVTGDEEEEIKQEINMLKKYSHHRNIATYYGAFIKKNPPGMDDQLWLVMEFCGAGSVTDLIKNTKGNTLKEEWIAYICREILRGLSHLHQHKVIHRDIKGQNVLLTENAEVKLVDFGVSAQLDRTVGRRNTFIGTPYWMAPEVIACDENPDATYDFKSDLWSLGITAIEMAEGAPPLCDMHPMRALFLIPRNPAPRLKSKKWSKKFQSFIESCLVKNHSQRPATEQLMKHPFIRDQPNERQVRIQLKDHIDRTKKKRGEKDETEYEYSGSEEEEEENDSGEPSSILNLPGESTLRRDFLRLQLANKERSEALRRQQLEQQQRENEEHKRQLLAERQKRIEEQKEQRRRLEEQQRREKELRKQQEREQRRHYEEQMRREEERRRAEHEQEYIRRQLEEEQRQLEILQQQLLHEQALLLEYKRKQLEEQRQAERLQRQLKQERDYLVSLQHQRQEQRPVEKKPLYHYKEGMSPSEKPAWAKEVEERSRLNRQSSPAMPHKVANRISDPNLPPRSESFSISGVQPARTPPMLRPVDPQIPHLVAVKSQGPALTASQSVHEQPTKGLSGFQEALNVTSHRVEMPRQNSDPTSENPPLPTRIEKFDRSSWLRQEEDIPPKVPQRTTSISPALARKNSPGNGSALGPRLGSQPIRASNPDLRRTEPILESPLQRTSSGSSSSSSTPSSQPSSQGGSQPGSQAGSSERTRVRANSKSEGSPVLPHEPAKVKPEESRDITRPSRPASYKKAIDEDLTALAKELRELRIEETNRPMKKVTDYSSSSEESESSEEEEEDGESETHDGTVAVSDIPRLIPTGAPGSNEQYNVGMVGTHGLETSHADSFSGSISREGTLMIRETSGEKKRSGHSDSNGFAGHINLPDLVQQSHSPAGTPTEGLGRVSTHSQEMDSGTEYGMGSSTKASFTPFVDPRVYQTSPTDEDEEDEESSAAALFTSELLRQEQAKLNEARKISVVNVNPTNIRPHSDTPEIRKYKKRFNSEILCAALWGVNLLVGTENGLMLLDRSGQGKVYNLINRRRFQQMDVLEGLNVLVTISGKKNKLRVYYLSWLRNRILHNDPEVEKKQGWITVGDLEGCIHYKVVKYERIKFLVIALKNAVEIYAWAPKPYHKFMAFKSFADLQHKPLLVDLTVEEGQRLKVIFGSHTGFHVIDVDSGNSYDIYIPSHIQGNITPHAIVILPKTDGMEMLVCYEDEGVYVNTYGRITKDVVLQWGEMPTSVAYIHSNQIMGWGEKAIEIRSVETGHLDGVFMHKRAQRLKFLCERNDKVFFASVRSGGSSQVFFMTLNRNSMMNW
CSNK1G1, sequence (Q9HCP0 whole entry): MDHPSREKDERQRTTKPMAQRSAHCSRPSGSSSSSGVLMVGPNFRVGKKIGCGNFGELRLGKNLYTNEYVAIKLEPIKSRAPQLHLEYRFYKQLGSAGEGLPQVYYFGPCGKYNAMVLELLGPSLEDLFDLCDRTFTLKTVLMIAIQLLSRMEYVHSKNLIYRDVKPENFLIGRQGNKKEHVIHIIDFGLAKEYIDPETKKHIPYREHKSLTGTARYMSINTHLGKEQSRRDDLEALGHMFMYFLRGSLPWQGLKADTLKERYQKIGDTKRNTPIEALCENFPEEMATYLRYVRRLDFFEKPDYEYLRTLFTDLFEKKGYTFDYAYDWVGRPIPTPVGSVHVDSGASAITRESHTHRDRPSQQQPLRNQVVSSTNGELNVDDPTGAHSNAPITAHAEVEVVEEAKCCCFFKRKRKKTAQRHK
CAMK2A, sequence (Q9UQM7 whole entry): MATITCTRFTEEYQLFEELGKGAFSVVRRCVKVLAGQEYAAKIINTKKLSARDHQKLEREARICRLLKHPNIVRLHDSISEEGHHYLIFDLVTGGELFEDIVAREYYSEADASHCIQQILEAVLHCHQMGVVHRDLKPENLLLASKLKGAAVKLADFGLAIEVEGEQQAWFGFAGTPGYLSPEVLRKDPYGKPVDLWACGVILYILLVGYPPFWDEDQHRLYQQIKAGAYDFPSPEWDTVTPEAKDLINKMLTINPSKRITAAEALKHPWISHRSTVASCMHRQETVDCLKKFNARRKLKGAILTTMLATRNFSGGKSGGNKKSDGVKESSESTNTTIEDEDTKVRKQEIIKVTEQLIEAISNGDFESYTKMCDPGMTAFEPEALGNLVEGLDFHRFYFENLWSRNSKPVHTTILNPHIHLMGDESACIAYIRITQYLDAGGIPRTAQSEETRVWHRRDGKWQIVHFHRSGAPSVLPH
SLK, sequence (Q9H2G2 whole entry): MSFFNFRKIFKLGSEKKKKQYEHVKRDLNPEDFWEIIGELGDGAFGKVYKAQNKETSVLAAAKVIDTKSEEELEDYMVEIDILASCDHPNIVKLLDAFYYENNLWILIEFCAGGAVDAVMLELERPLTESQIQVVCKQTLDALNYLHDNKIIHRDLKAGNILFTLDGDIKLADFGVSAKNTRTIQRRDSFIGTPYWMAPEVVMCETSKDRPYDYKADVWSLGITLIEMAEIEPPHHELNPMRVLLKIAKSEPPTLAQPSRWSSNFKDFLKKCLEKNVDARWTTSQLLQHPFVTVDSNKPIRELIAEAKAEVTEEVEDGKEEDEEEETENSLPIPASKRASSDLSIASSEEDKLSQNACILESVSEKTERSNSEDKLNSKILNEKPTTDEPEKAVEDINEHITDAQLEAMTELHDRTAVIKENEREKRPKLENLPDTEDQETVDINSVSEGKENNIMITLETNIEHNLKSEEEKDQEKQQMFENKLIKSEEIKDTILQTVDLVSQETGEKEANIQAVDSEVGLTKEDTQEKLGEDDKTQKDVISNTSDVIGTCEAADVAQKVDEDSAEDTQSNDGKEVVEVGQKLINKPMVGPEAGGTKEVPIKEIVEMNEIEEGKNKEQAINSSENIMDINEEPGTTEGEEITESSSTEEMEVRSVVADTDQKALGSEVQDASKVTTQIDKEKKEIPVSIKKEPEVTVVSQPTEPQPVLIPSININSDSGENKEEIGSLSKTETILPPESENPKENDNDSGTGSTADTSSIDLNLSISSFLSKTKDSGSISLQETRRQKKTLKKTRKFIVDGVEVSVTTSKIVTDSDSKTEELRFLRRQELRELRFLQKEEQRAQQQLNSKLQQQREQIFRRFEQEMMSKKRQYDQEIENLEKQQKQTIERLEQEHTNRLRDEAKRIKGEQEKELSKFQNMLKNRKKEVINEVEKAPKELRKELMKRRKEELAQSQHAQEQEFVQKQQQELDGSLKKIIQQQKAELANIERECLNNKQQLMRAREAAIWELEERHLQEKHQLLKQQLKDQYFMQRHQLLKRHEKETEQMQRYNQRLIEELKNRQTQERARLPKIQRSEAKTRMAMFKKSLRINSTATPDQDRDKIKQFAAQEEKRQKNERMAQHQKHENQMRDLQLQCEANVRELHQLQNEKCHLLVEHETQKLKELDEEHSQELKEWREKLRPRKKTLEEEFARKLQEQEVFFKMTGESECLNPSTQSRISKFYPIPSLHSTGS
LYN, sequence (P07948 whole entry): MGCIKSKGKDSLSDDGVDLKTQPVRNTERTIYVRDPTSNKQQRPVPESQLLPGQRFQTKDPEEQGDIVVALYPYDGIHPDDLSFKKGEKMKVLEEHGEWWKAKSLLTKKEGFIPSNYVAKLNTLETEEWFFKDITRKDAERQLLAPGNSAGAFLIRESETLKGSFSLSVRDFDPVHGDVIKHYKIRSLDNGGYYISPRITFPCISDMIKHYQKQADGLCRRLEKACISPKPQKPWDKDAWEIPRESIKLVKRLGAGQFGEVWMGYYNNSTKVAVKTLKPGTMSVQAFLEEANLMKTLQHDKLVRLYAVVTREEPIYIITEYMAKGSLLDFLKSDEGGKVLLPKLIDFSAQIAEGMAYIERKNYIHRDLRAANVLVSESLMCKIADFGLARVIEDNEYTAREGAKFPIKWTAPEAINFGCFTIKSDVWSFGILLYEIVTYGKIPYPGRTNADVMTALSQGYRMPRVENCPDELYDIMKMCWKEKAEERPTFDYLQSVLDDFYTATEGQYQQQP
CLK2, sequence (P49760 whole entry): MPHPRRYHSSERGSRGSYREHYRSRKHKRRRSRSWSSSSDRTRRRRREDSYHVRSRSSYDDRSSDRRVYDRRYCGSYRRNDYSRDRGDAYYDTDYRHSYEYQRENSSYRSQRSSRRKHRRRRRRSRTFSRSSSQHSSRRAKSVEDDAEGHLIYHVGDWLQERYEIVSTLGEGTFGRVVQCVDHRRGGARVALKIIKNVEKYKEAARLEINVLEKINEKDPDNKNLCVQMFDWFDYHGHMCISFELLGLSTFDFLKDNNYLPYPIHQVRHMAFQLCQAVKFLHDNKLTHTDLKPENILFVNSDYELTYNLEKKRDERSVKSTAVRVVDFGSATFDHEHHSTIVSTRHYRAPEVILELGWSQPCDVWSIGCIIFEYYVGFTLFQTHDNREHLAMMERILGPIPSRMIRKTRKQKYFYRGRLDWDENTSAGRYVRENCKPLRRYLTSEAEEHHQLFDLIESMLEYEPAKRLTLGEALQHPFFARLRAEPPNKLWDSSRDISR

SMILES: Nc1nccc(-c2ccc3noc(-c4ccc(Cl)cc4)c3c2)n1 [compound 4, K00972]
- ΔTm inhibitor 4 (CDKL1): 0.8 °C
- ΔTm inhibitor 4 (PIM3): 5.4 °C
- ΔTm inhibitor 4 (LYN): 0.3 °C
- ΔTm inhibitor 4 (PKMYT1): 0.1 °C
- ΔTm inhibitor 4 (CSNK1G1): 1.0 °C
- ΔTm inhibitor 4 (SLK): 0.5 °C
- ΔTm inhibitor 4 (CAMK2A): 0.1 °C
- ΔTm inhibitor 4 (TNIK): 1.2 °C
- ΔTm inhibitor 4 (DYRK2): 8.9 °C
- ΔTm inhibitor 4 (CLK2): 7.2 °C
- ΔTm inhibitor 4 (PHKG2): 1.7 °C

SMILES: CCN1/C(=C/C(C)=O)Sc2ccc(OC)cc21 [compound 2, TG003]
- ΔTm inhibitor 2 (CDKL1): 0.4 °C
- ΔTm inhibitor 2 (PIM3): 4.9 °C
- ΔTm inhibitor 2 (LYN): 0.1 °C
- ΔTm inhibitor 2 (PKMYT1): -0.6 °C
- ΔTm inhibitor 2 (CSNK1G1): 3.2 °C
- ΔTm inhibitor 2 (SLK): -0.5 °C
- ΔTm inhibitor 2 (CAMK2A): -0.1 °C
- ΔTm inhibitor 2 (TNIK): 0.1 °C
- ΔTm inhibitor 2 (DYRK2): 7.3 °C
- ΔTm inhibitor 2 (CLK2): 5.0 °C
- ΔTm inhibitor 2 (PHKG2): 0.2 °C

SMILES: CC(=O)c1cccc(-c2cnc3ccc(NCC4CC4)nn23)c1 [compound 1, K00135]
- ΔTm inhibitor 1 (CDKL1): 0.2 °C
- ΔTm inhibitor 1 (PIM3): 6.8 °C
- ΔTm inhibitor 1 (LYN): 2.4 °C
- ΔTm inhibitor 1 (PKMYT1): 0.9 °C
- ΔTm inhibitor 1 (CSNK1G1): 1.7 °C
- ΔTm inhibitor 1 (SLK): 2.3 °C
- ΔTm inhibitor 1 (CAMK2A): 0.5 °C
- ΔTm inhibitor 1 (TNIK): 1.2 °C
- ΔTm inhibitor 1 (DYRK2): 4.1 °C
- ΔTm inhibitor 1 (CLK2): 5.5 °C
- ΔTm inhibitor 1 (PHKG2): 1.7 °C
